melting point | Structure (SMILES)
198 to 199 °C | CN(C)c1cc2c(cc1C(F)(F)F)NC(=O)CC(c1cccc(-c3nc(CO)cs3)c1)=N2 [Example 201, 7-Dimethylamino-4-[3-(4-hydroxymethyl-thiazol-2-yl)-phenyl]-8-trifluoromethyl-1,3-dihydro-benzo[b][1,4]diazepin-2-one]
197 to 198 °C | CN(C)c1cc2c(cc1C(F)(F)F)NC(=O)CC(c1cccc(-c3nc(CO)co3)c1)=N2 [Example 202, 7-Dimethylamino-4-[3-(4-hydroxymethyl-oxazol-2-yl)-phenyl]-8-trifluoromethyl-1,3-dihydro-benzo[b][1,4]diazepin-2-one]
237 °C (dec.) | CN(C)c1cc2c(cc1C(F)(F)F)NC(=O)CC(c1cccc(-c3nnc(CCO)o3)c1)=N2 [Example 207, 7-Dimethylamino-4-{3-[5-(2-hydroxy-ethyl)-[1,3,4]oxadiazol-2-yl]-phenyl}-8-trifluoromethyl-1,3-dihydro-benzo[b][1,4]diazepin-2-one]
218 to 219 °C | CN(C)c1cc2c(cc1C(F)(F)F)NC(=O)CC(c1cccc(-c3cocn3)c1)=N2 [Example 208, 7-Dimethylamino-4-(3-oxazol-4-yl-phenyl)-8-trifluoromethyl-1,3-dihydro-benzo[b][1,4]diazepin-2-one]
200 °C (dec.) | CN(C)c1cc2c(cc1C(F)(F)F)NC(=O)CC(c1cccc(-c3cscn3)c1)=N2 [Example 209, 7-Dimethylamino-4-(3-thiazol-4-yl-phenyl)-8-trifluoromethyl-1,3-dihydro-benzo[b][1,4]diazepin-2-one]
192 to 193 °C | Cc1nc(-c2cccc(C3=Nc4cc(N(C)C)c(C(F)(F)F)cc4NC(=O)C3)c2)co1 [Example 210, 7-Dimethylamino-4-[3-(2-methyl-oxazol-4-yl)-phenyl]-8-trifluoromethyl-1,3-dihydro-benzo[b][1,4]diazepin-2-one]
238 to 239 °C | Cc1ocnc1-c1cccc(C2=Nc3cc(N(C)C)c(C(F)(F)F)cc3NC(=O)C2)c1 [Example 211, 7-Dimethylamino-4-[3-(5-methyl-oxazol-4-yl)-phenyl]-8-trifluoromethyl-1,3-dihydro-benzo[b][1,4]diazepin-2-one]
214 to 215 °C | Cc1scnc1-c1cccc(C2=Nc3cc(N(C)C)c(C(F)(F)F)cc3NC(=O)C2)c1 [Example 213, 7-Dimethylamino-4-[3-(5-methyl-thiazol-4-yl)-phenyl]-8-trifluoromethyl-1,3-dihydro-benzo[b][1,4]diazepin-2-one]
208 to 209 °C | Cc1nc(-c2cccc(C3=Nc4cc(N(C)C)c(C(F)(F)F)cc4NC(=O)C3)c2)c(C)s1 [Example 214, 7-Dimethylamino-4-[3-(2,5-dimethyl-thiazol-4-yl)-phenyl]-8-trifluoromethyl-1,3-dihydro-benzo[b][1,4]diazepin-2-one]
226 to 227 °C | Cc1nc(-c2cccc(C3=Nc4cc(N(C)C)c(C(F)(F)F)cc4NC(=O)C3)c2)c(CO)s1 [Example 218, 7-Dimethylamino-4-[3-(5-hydroxymethyl-2-methyl-thiazol-4-yl)-phenyl]-8-trifluoromethyl-1,3-dihydro-benzo[b][1,4]diazepin-2-one]
150 °C (dec.) | CC(C)c1nc(-c2cccc(C3=Nc4cc(N(C)C)c(C(F)(F)F)cc4NC(=O)C3)c2)c[nH]1 [Example 221, 7-Dimethylamino-4-[3-(2-isopropyl-1H-imidazol-4-yl)-phenyl]-8-trifluoromethyl-1,3-dihydro-benzo[b][1,4]diazepin-2-one]

More lines, now with the values behind:

Structure (SMILES) | melting point
CN(C)c1cc2c(cc1Cl)NC(=O)CC(c1cccc(-c3csc(N)n3)c1)=N2 [Example 194, 4-[3-(2-Amino-thiazol-4-yl)-phenyl]-8-chloro-7-dimethylamino-1,3-dihydro-benzo[b][1,4]diazepin-2-one] | 247 to 248 °C
CN(C)c1cc2c(cc1Cl)NC(=O)CC(c1cccc(-c3csc(NC(=N)N)n3)c1)=N2 [Example 196, N-{4-[3-(7-Chloro-8-dimethylamino-4-oxo-4,5-dihydro-3H-benzo[b][1,4]diazepin-2-yl)-phenyl]-thiazol-2-yl}-guanidine] | 221 °C (dec.)
CN(C)c1cc2c(cc1Cl)NC(=O)CC(c1cccc(-c3csc(Nc4ccncc4)n3)c1)=N2 [Example 197, 8-Chloro-7-dimethylamino-4-{3-[2-(pyridin-4-ylamino)-thiazol-4-yl]-phenyl}-1,3-dihydro-benzo[b][1,4]diazepin-2-one] | 231 to 234 °C
CCCN(C)c1cc2c(cc1Cl)NC(=O)CC(c1cccc(-c3coc(C)n3)c1)=N2 [Example 198, 8-Chloro-4-[3-(2-methyl-oxazol-4-yl)-phenyl]-7-(methyl-propyl-amino)-1,3-dihydro-benzo[b][1,4]diazepin-2-one] | 163 to 164 °C
CCCN(C)c1cc2c(cc1C)NC(=O)CC(c1cccc(-c3nc(CO)cs3)c1)=N2 [Example 199, 4-[3-(4-Hydroxymethyl-thiazol-2-yl)-phenyl]-8-methyl-7-(methyl-propyl-amino)-1,3-dihydro-benzo[b][1,4]diazepin-2-one] | 222 to 224 °C
CCCN(C)c1cc2c(cc1C)NC(=O)CC(c1cccc(-c3nc(CO)co3)c1)=N2 [Example 200, 4-[3-(4-Hydroxymethyl-oxazol-2-yl)-phenyl]-8-methyl-7-(methyl-propyl-amino)-1,3-dihydro-benzo[b][1,4]diazepin-2-one] | 200 to 202 °C
CCCN(C)c1cc2c(cc1C(F)(F)F)NC(=O)CC(c1cccc(-c3nc(CO)cs3)c1)=N2 [Example 203, 4-[3-(4-Hydroxymethyl-thiazol-2-yl)-phenyl]-7-(methyl-propyl-amino)-8-trifluoromethyl-1,3-dihydro-benzo[b][1,4]diazepin-2-one] | 177 to 180 °C
CN(C)c1cc2c(cc1C(F)(F)F)NC(=O)CC(c1cccc(-c3nnc(CCO)s3)c1)=N2 [Example 205, 7-Dimethylamino-4-{3-[5-(2-hydroxy-ethyl)-[1,3,4]thiadiazol-2-yl]-phenyl}-8-trifluoromethyl-1,3-dihydro-benzo[b][1,4]diazepin-2-one] | 234 to 237 °C
Cc1sc(CO)nc1-c1cccc(C2=Nc3cc(N(C)C)c(C(F)(F)F)cc3NC(=O)C2)c1 [Example 216, 7-Dimethylamino-4-[3-(2-hydroxymethyl-5-methyl-thiazol-4-yl)-phenyl]-8-trifluoromethyl-1,3-dihydro-benzo[b][1,4]diazepin-2-one] | 190 to 193 °C
CCCc1sc(CO)nc1-c1cccc(C2=Nc3cc(N(C)C)c(C(F)(F)F)cc3NC(=O)C2)c1 [Example 217, 7-Dimethylamino-4-[3-(2-hydroxymethyl-5-propyl-thiazol-4-yl)-phenyl]-8-trifluoromethyl-1,3-dihydro-benzo[b][1,4]diazepin-2-one] | 112 to 114 °C
CN(C)c1cc2c(cc1Cl)NC(=O)CC(c1cccc(-c3nnc(CCO)s3)c1)=N2 [Example 223, 8-Chloro-7-dimethylamino-4-{3-[5-(2-hydroxy-ethyl)-[1,3,4]thiadiazol-2-yl]-phenyl}-1,3-dihydro-benzo[b][1,4]diazepin-2-one] | 198 to 200 °C
